Laboratory results from patent publication US20150289512A1, “METHOD FOR PROMOTING PLANT GROWTH” (SUMITOMO CHEMICAL COMPANY, LIMITED, priority 2012, published 2015).

How the values were obtained:
Type in all cases: in vivo
[1] = test system: Rice (variety: Nipponbare); test: Test Example 2: promotion of root growth by hydroponics of rice, 1 ppm; settings: Oryza sativa, hydroponic solution containing the test compound at 1 ppm, average of 4 or 5 individuals, read-out: Relative value of length of seminal root (%-untreated control plot)
Description: (§1) Test for Evaluating Promotion of Root Growth by Hydroponics of Rice
(§2) Rice (variety: Nipponbare)
A DMSO solution, which contained one of the compounds 1, 3, 11, 12, 14, 15, 17, 21, 28, 30, 33, 34, 35, 36, 37, 38, 40, 41, 43, 44, 45, 46, 47, 49, 50, 51, 52, 53, 54, 55, 56, 61, 62, 63, 65, 67, 68, 69, 70, 73, 74, 75, 76, 77, 80, 82, 83, 85 and 86 of the present invention at a concentration of 10,000 ppm, was added to Hoagland hydroponic solution (Hoagland and Arnon, California Agricultural Experiment Station 1950 Circular 347 pp. 34) of ¼-fold concentration at a volume ratio of 1/10,000. In this manner, hydroponic solutions containing one of the compounds 1, 3, 11, 12, 14, 15, 17, 21, 28, 30, 33, 34, 35, 36, 37, 38, 40, 41, 43, 44, 45, 46, 47, 49, 50, 51, 52, 53, 54, 55, 56, 61, 62, 63, 65, 67, 68, 69, 70, 73, 74, 75, 76, 77, 80, 82, 83, 85 and 86 of the present invention at 1 ppm were prepared respectively. As an untreated control plot, a hydroponic solution obtained by adding DMSO to Hoagland hydroponic solution of ¼-fold concentration at a volume ratio of 1/10,000 was used. Rice seeds were soaked in a 1% aqueous sodium hypochlorite solution for 10 minutes, then soaked in a 70% ethanol solution for surface sterilization, and then washed with distilled water. The sterilized seeds were soaked in a hydroponic solution containing the test compound described above at 1 ppm and incubated in a dark place for 3 days at 28° C. to perform treatment for hastening germination.
(§3) Thereafter, 30 ml of hydroponic solution containing the test compound at 1 ppm was dispensed in a plastic tube (diameter of 20 mm×height of 113 mm) of which the side was covered with cardboard to block light. A float prepared using a styrene board and vinyl mesh was floated, and the rice seeds that had undergone the treatment for hastening germination were placed on the float on the surface of the hydroponic solution. The seeds were cultivated for 3 days at 26° C., an illuminance of 4,000 lux of the top surface of the tube, a humidity of 50%, and a day length of 16 hours.
The nursery plants of rice obtained after cultivation were measured in terms of the length of seminal root by using WinRHIZO system (manufactured by Regent Instruments Inc). For each test plot, an average of the measured values of the seminal root of 4 or 5 individuals was determined.

Nicotiana benthamiana [2] = test: Test Example 5: growth promotion under low-temperature stress by hydroponics of Nicotiana benthamiana, 1 ppm; settings: 1 ppm in medium, low-temperature stress 7 days at 1.5±1.0° C., green leaf area 3 days later, equation (1)
Description: (§4) Test for Evaluating Growth Promotion Under Low-Temperature Stress by Hydroponics of Nicotiana benthamiana
A DMSO solution, which contained one of the compounds 2, 4, 5, 6, 11, 12, 17, 20, 21, 28, 30, 34, 36, 37, 51, 52, 53, 55, 56, 58, 59, 60, 64, 65, 66, 68, 69, 70, 74, 77, 82, 83, 84, 86 and 87 of the present invention at a concentration of 1,000 ppm, was prepared. The DMSO solution of the compound of the present invention was added at a volume ratio of 1/1,000 to the Murashige•Scoog medium of a ½-fold concentration (a medium containing 2.3 g of mixed salts for the Murashige•Scoog medium (manufactured by Wako Pure Chemical Industries, Ltd.), 200 mg of Myo-inositol (manufactured by Sigma-Aldrich Co. LLC.), 2 mg of nicotinic acid (manufactured by Wako Pure Chemical Industries, Ltd.), 2 mg of pyridoxine hydrochloride (manufactured by Wako Pure Chemical Industries, Ltd.), 20 mg of thiamine hydrochloride (manufactured by Wako Pure Chemical Industries, Ltd.), 20 g of sucrose (manufactured by Wako Pure Chemical Industries, Ltd.), and 1 g of MES (manufactured by DOJINDO LABORATORIES) per 1 L of water and having pH adjusted to 5.8), thereby preparing a medium containing the compound of the present invention at a concentration of 1 ppm.
(§5) Seeds of Nicotiana benthamiana were seeded in the 5 μL of the medium and cultured overnight at 22° C. Thereafter, 45 μL of the medium containing the compound of the present invention at a concentration of 1 ppm was added thereto, and the seeds are cultured for 7 days at 22° C., an illuminance of 4,000 lux, and a day length of 16 hours, and the nursery plants raised from the Nicotiana benthamiana were treated with the compound. Moreover, instead of the above medium, a test plot, which was obtained by performing the same treatment by using a medium prepared by adding DMSO to the Murashige•Scoog medium of ½-fold concentration at a volume ratio of 1/1,000, was used as a control plot not treated with the compound.
(§6) The nursery plants of the Nicotiana benthamiana treated with the compound were subjected to low-temperature treatment by being cultivated for 7 days at 1.5±1.0° C., an illuminance of 2,000 lux, and a day length of 16 hours.
The nursery plants of the Nicotiana benthamiana having undergone the low-temperature stress treatment were cultured for 3 days at 22° C., an illuminance of 4,000 lux, and a day length of 16 hours. Thereafter, the area of green leaf was quantified by Scanalyzer HTS (manufactured by LemnaTec GmbH). Moreover, the value of the control plot not treated with the compound that had not yet been subjected to the low-temperature stress treatment was measured in the same manner. A value of a relative leaf area was calculated based on the following equation (1), and if the value of a relative leaf area was 5 or greater, the compound was evaluated to have a mitigating effect. As a result of the evaluation, it was confirmed that when the plant was treated with one of the compounds 2, 4, 5, 6, 11, 12, 17, 20, 21, 28, 30, 34, 36, 37, 51, 52, 53, 55, 56, 58, 59, 60, 64, 65, 66, 68, 69, 70, 74, 77, 82, 83, 84, 86 and 87 of the present invention at 1 ppm, the value of a relative leaf area was 5 or greater, compared to the area of green leaf of the control plot not treated with compound. Accordingly, it was confirmed that the treatment using the compound of the present invention brings about a growth promotion effect.
(§7) Relative leaf area=100*(a green area of a plot treated with the compound of the present invention−a green area of a control plot not treated with the compound of the present invention)/(a green area of a control plot not treated with the compound of the present invention that has not yet been subjected to low-temperature stress treatment−a green area of a control plot not treated with the compound of the present invention) Equation (1): […]

[3] = test system: Rice (variety: Nipponbare); test: Test Example 1: promotion of root growth by hydroponics of rice, 10 ppm; settings: Oryza sativa, hydroponic solution containing the test compound at 10 ppm, average of 4 or 5 individuals, read-out: Relative value of length of seminal root (%-untreated control plot)
Description: as §1, §2
Rice seeds were soaked in a 1% aqueous sodium hypochlorite solution for 10 minutes, then soaked in a 70% ethanol solution for surface sterilization, and then washed with distilled water. The sterilized seeds were soaked in a hydroponic solution containing the test compound described above at 10 ppm and incubated in a dark place for 3 days at 28° C. to perform treatment for hastening germination.
as §3, with “at 10” for “at 1”
The nursery plants of rice obtained after culturing were measured in terms of the length of seminal root by using WinRHIZO system (manufactured by Regent Instruments Inc). For each test plot, an average of the measured values of the seminal root of 4 or 5 individuals was determined.

Nicotiana benthamiana [4] = test: Test Example 4: growth promotion under low-temperature stress by hydroponics of Nicotiana benthamiana, 10 ppm; settings: 10 ppm in medium, low-temperature stress 7 days at 1.5±1.0° C., green leaf area 3 days later, equation (1)
Description: as §4
A DMSO solution, which contained one of the compounds 1, 8, 9, 13, 18, 19, 22, 23, 29, 32, 33, 34, 39, 40, 41, 43, 44, 51, 53, 54, 55, 56, 58, 60, 62, 63, 64, 65, 67, 69, 71, 73, 74, 75, 77, 79, 82, 83 and 86 of the present invention at a concentration of 10,000 ppm, was prepared. The DMSO solution of the compound of the present invention was added at a volume ratio of 1/1,000 to the Murashige•Scoog medium of a ½-fold concentration (a medium containing 2.3 g of mixed salts for the Murashige•Scoog medium (manufactured by Wako Pure Chemical Industries, Ltd.), 200 mg of Myo-inositol (manufactured by Sigma-Aldrich Co. LLC.), 2 mg of nicotinic acid (manufactured by Wako Pure Chemical Industries, Ltd.), 2 mg of pyridoxine hydrochloride (manufactured by Wako Pure Chemical Industries, Ltd.), 20 mg of thiamine hydrochloride (manufactured by Wako Pure Chemical Industries, Ltd.), 20 g of sucrose (manufactured by Wako Pure Chemical Industries, Ltd.), and 1 g of MES (manufactured by DOJINDO LABORATORIES) per 1 L of water and having pH adjusted to 5.8), thereby preparing a medium containing the compound of the present invention at a concentration of 10 ppm.
as §5, with “concentration of 10 ppm was” for “concentration of 1 ppm was”, “seeds are cultivated for 7” for “seeds are cultured for 7”
as §6
The nursery plants of the Nicotiana benthamiana having undergone the low-temperature stress treatment were cultivated for 3 days at 22° C., an illuminance of 4,000 lux, and a day length of 16 hours. Thereafter, the area of green leaf was quantified by Scanalyzer HTS (manufactured by LemnaTec GmbH). Moreover, the value of the control plot not treated with the compound that had not yet been subjected to the low-temperature stress treatment was measured in the same manner. A value of a relative leaf area was calculated based on the following equation (1), and if the value of a relative leaf area was 5 or greater, the compound was evaluated to have a mitigating effect. As a result of the evaluation, it was confirmed that when the plant was treated with one of the compounds 1, 8, 9, 13, 18, 19, 22, 23, 29, 32, 33, 34, 39, 40, 41, 43, 44, 51, 53, 54, 55, 56, 58, 60, 62, 63, 64, 65, 67, 69, 71, 73, 74, 75, 77, 79, 82, 83 and 86 of the present invention at 10 ppm, the value of a relative leaf area was 5 or greater, compared to the area of green leaf of the control plot not treated with compound. Accordingly, it was confirmed that the treatment using the compound of the present invention brings about a growth promotion effect.
as §7

| Structure (SMILES) | change in vivo at 1 ppm [1] [%] | relative leaf area (% of untreated control) at 1 ppm (Nicotiana benthamiana [2]) [%] | change in vivo at 10 ppm [3] [%] | relative leaf area at 10 ppm (Nicotiana benthamiana [4]) [%] |
| --- | --- | --- | --- | --- |
| COC(=O)c1nc2cc(C(F)(F)F)ccc2[nH]1 [Compound 21, methyl 5-(trifluoromethyl)benzimidazole-2-carboxylate] | > 5 | ≥ 5 |  |  |
| COC(=O)c1oc2ccccc2c1NS(C)(=O)=O [Compound 60] |  | ≥ 5 | > 5 | ≥ 5 |
| COC(=O)c1oc2ccccc2c1N(C)C [Compound 58] |  | ≥ 5 |  | ≥ 5 |
